# US20210322397A1, “METHOD TO PREVENT AND TREAT GINGIVAL RECESSION BY CALCIUM CHANNEL BLOCKERS, ANGIOTENSIN CONVERTING ENZYME INHIBITORS, AND ANGIOTENSIN RECEPTOR BLOCKERS” (priority 2018, published 2021)
# Where two headings read alike, the source gives them in different places.
# Experiments:
# [1] = system: gingival recession; conditions: patient with gingival recession throughout the mouth
# Source text: (§1) A patient is diagnosed with gingival recession throughout the mouth.
# A patient is diagnosed with gingival recession throughout the mouth. A composition comprising the ACE inhibitor enalapril is directly applied to the tissue of the gum on one side of the mouth while the other side is left untreated.
# A patient is diagnosed with gingival recession throughout the mouth. A composition comprising the angiotensin receptor blocker losartan is directly applied to the tissue of the gum on one side of the mouth while the other side is left untreated.
# as §1
# A patient is diagnosed with gingival recession throughout the mouth. A composition comprising the ACE inhibitor enalapril is administered by injection into the tissue of the gum on one side of the mouth while the other side is left untreated.
# A patient is diagnosed with gingival recession throughout the mouth. A composition comprising the angiotensin receptor blocker losartan is administered by injection into the tissue of the gum on one side of the mouth while the other side is left untreated.
# [2] = system: gingival recession; conditions: patient previously successfully treated, after a period of time
# Description: A composition comprising the ACE inhibitor enalapril is directly applied to the tissue of the gum on one side of the mouth while the other side is left untreated.
# A composition comprising the angiotensin receptor blocker losartan is directly applied to the tissue of the gum on one side of the mouth while the other side is left untreated.
# A composition comprising the ACE inhibitor enalapril is administered by injection into the tissue of the gum on one side of the mouth while the other side is left untreated.
# A composition comprising the angiotensin receptor blocker losartan is administered by injection into the tissue of the gum on one side of the mouth while the other side is left untreated.
# [3] = composition administered by injection into the tissue of the gum on one side
# [4] = composition directly applied to the tissue of the gum on one side
Structure (SMILES),"symptoms of gingival recession, treated side versus untreated side [1, 3]","symptoms of gingival recession, treated side versus untreated side [1, 4]","recurrence of symptoms of gingival recession, treated side versus untreated side [2, 3]","recurrence of symptoms of gingival recession, treated side versus untreated side [2, 4]"
CCOC(=O)[C@H](CCc1ccccc1)N[C@@H](C)C(=O)N1CCC[C@H]1C(=O)O [enalapril],reduced symptoms of gingival recession,reduced symptoms of gingival recession,free of symptoms of gingival recession,free of symptoms of gingival recession
CCCCc1nc(Cl)c(CO)n1Cc1ccc(-c2ccccc2-c2nn[nH]n2)cc1 [losartan],reduced symptoms of gingival recession,reduced symptoms of gingival recession,free of symptoms of gingival recession,free of symptoms of gingival recession
